Test results: patent EP0153845A2, “CRF analogs” (THE SALK INSTITUTE FOR BIOLOGICAL STUDIES, priority 1984, dated 1985)
Square brackets hold non-standard residues; d marks the D form. Ends that are not written are not given here. Peptide text beside a SMILES is read from it. * marks the point of attachment. Nle = CCCC[C@H](N)C(=O)O; Orn = NCCC[C@H](N)C(=O)O; Bz = O=C(c1ccccc1)*

What was measured:
[1] = molecular target: T1, cultured rat pituitary cells (Rattus norvegicus, UniProt P35353); assay: Block of ACTH and β-endorphin secretion by cultured rat pituitary cells by CRF antagonists (procedure of Example XLIII); type: cell-based; conditions: general procedure of Example XLIII
T1 sequence (P35353 24-415): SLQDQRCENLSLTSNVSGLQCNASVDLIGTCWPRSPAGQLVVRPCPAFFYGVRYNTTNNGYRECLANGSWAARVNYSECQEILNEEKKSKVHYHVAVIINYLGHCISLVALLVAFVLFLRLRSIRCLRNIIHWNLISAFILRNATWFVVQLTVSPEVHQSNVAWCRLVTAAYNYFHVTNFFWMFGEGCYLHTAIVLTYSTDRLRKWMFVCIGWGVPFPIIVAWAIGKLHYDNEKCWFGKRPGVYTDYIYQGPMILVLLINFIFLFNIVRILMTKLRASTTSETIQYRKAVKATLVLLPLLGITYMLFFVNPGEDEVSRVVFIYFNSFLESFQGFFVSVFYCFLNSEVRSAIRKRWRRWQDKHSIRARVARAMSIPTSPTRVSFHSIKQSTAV
Protocol: The effectiveness of synthetic CRF antagonists to block the secretion of ACTH and B-endorphin by cultured rat pituitary cells is measured using the procedure as generally set forth in Vale et al., Endocrinology, 91, 562 (1972). In vivo testing is carried out using the general procedure set forth in C. Rivier et al., Science, 218, 377 (1982).

[2] = molecular target: T1, cultured rat pituitary cells; assay: Stimulation of ACTH and β-endorphin secretion by cultured rat pituitary cells (general procedure of Example III); type: cell-based; conditions: general procedure of Example III
Protocol: The synthetic peptide AHC and oCRF were examined for their effects on the secretion of ACTH and B-endorphin in vitro and was also in vivo. The potency of synthetic oCRF to stimulate the secretion of ACTH and β-endorphin by cultured rat pituitary cells was measured using the procedure as generally set forth in Endocrinology, 91, 562 (1972). […] In.vivo testing is carried out using the general procedure set forth in C. Rivier et al., Science, 218, 377 (1982).

[3] = Lowering of blood pressure, in vivo testing by the general procedure of Example III

Molecule | secretion of ACTH and β-END-LI (antagonist test) [1] | secretion of ACTH and β-END-LI [2] | lowering of blood pressure [3]
H-DLTFHLLRNMIEMARNENQREQAGLNRKYLDEV-NH2 [Carp Urotensin 1(9-41)] | inhibits |  | 
CCCC[C@H](NC(=O)[C@H](CCC(=O)O)NC(=O)[C@H](CC(C)C)NC(=O)[C@H](CCCC)NC(=O)[C@H](CCC(=O)O)NC(=O)[C@H](CCCNC(=N)N)NC(=O)[C@H](CC(C)C)NC(=O)[C@H](CC(C)C)NC(=O)[C@H](Cc1c[nH]cn1)NC(=O)[C@H](Cc1ccccc1)NC(=O)[C@@H](NC(=O)[C@H](CC(C)C)NC(=O)[C@H](CC(=O)O)NC(=O)[C@@H](N)CC(C)C)[C@@H](C)O)C(=O)N[C@@H](C)C(=O)N[C@@H](CCCCN)C(=O)N[C@@H](C)C(=O)N[C@@H](CCC(=O)O)C(=O)N[C@@H](CCC(N)=O)C(=O)N[C@@H](CCC(=O)O)C(=O)N[C@@H](C)C(=O)N[C@@H](CCC(=O)O)C(=O)N[C@@H](CCC(N)=O)C(=O)N[C@@H](C)C(=O)N[C@@H](C)C(=O)N[C@@H](CC(C)C)C(=O)N[C@@H](CC(N)=O)C(=O)N[C@@H](CCCNC(=N)N)C(=O)N[C@@H](CC(C)C)C(=O)N[C@@H](CC(C)C)C(=O)N[C@@H](CC(C)C)C(=O)N[C@@H](CCC(=O)O)C(=O)N[C@@H](CCC(=O)O)C(=O)N[C@@H](C)C(N)=O [[Nle^18,21]-AHC(8-41)] (H-LDLTFHLLRE[Nle]LE[Nle]AKAEQEAEQAALNRLLLEEA-NH2) | inhibits |  | 
H-LDLTFHLLREVLEMAKAEQLAQQAHSNRKLLEII-NH2 [[Lys^23, Leu^38]-hCRF(8-41)] | inhibits |  | 
H-DLSLELLRKMIEIEKQEKLKQQAANNRLLMDTI-NH2 [[Leu^26, Met^37]-sauvagine(8-40)] | inhibits |  | 
CCCC[C@H](NC(=O)[C@@H](NC(=O)[C@H](CCC(=O)O)NC(=O)[C@H](CC(C)C)NC(=O)[C@H](CC(C)C)NC(=O)[C@H](CCCCN)NC(=O)[C@H](CCCNC(=N)N)NC(=O)[C@H](CC(N)=O)NC(=O)[C@H](CO)NC(=O)[C@H](Cc1c[nH]cn1)NC(=O)[C@H](C)NC(=O)[C@H](CCC(N)=O)NC(=O)[C@H](CCC(N)=O)NC(=O)[C@H](C)NC(=O)[C@H](CC(C)C)NC(=O)[C@H](CCC(N)=O)NC(=O)[C@H](CCC(=O)O)NC(=O)[C@H](C)NC(=O)[C@H](CCCNC(=N)N)NC(=O)[C@H](C)NC(=O)[C@H](C)NC(=O)[C@H](CCC(=O)O)NC(=O)[C@H](CC(C)C)NC(=O)[C@@H](NC(=O)[C@H](CCC(=O)O)NC(=O)[C@H](CCCNC(=N)N)NC(=O)[C@H](CC(C)C)NC(=O)[C@H](CC(C)C)NC(=O)[C@H](Cc1c[nH]cn1)NC(=O)[C@H](Cc1ccccc1)NC(=O)[C@@H](NC(=O)[C@H](CC(C)C)NC(=O)[C@@H](N)CC(=O)O)[C@@H](C)O)C(C)C)[C@@H](C)CC)C(N)=O [[Ala, Leu^38, Nle^41]-hCRF(9-41)] (H-DLTFHLLREVLEAARAEQLAQQAHSNRKLLEI[Nle]-NH2) | inhibits |  | 
CCCC[C@H](NC(=O)[C@H](CCC(=O)O)NC(=O)[C@H](CC(C)C)NC(=O)[C@H](CCCC)NC(=O)[C@H](CCC(=O)O)NC(=O)[C@H](CCCNC(=N)N)NC(=O)[C@H](CC(C)C)NC(=O)[C@H](CC(C)C)NC(=O)[C@H](Cc1c[nH]cn1)NC(=O)[C@H](Cc1ccccc1)NC(=O)[C@@H](NC(=O)[C@H](CC(C)C)NC(=O)[C@@H](N)CC(=O)O)[C@@H](C)O)C(=O)N[C@@H](C)C(=O)N[C@@H](CCCCN)C(=O)N[C@@H](C)C(=O)N[C@@H](CCC(=O)O)C(=O)N[C@@H](CCC(N)=O)C(=O)N[C@@H](CCC(=O)O)C(=O)N[C@@H](C)C(=O)N[C@@H](CCC(=O)O)C(=O)N[C@@H](CCC(N)=O)C(=O)N[C@@H](C)C(=O)N[C@@H](C)C(=O)N[C@@H](CC(C)C)C(=O)N[C@@H](CC(N)=O)C(=O)N[C@@H](CCCNC(=N)N)C(=O)N[C@@H](CC(C)C)C(=O)N[C@@H](CC(C)C)C(=O)N[C@@H](CC(C)C)C(=O)N[C@@H](CCC(=O)O)C(=O)N[C@@H](CCC(=O)O)C(=O)N[C@@H](C)C(N)=O [[Nie^18,21]-AHC(9-41)] (H-DLTFHLLRE[Nle]LE[Nle]AKAEQEAEQAALNRLLLEEA-NH2) | inhibits |  | 
H-DLTFHLLREVAEMTRAEQLAQQAHSNRKLMEII-NH2 [(Ala^19, Thr^22]-hCRF(9-41)] | inhibits |  | 
CCCC[C@H](NC(=O)[C@H](CCC(=O)O)NC(=O)[C@H](CC(C)C)NC(=O)[C@H](CCCC)NC(=O)[C@H](CCC(=O)O)NC(=O)[C@H](CCCNC(=N)N)NC(=O)[C@H](CC(C)C)NC(=O)[C@H](CC(C)C)NC(=O)[C@H](Cc1c[nH]cn1)NC(=O)[C@H](Cc1ccccc1)NC(=O)[C@@H](NC(=O)[C@H](CC(C)C)NC(=O)[C@H](CC(=O)O)NC(=O)[C@H](CC(C)C)NC(=O)[C@H](CO)NC(=O)[C@@H](N)[C@@H](C)CC)[C@@H](C)O)C(=O)N[C@@H](C)C(=O)N[C@@H](CCCCN)C(=O)N[C@@H](C)C(=O)N[C@@H](CCC(=O)O)C(=O)N[C@@H](CCC(N)=O)C(=O)N[C@@H](CCC(=O)O)C(=O)N[C@@H](C)C(=O)N[C@@H](CCC(=O)O)C(=O)N[C@@H](CCC(N)=O)C(=O)N[C@@H](C)C(=O)N[C@@H](C)C(=O)N[C@@H](CC(C)C)C(=O)N[C@@H](CC(N)=O)C(=O)N[C@@H](CCCNC(=N)N)C(=O)N[C@@H](CCCNC(=N)N)C(=O)N[C@@H](CC(C)C)C(=O)N[C@@H](CC(C)C)C(=O)N[C@@H](CCC(=O)O)C(=O)N[C@@H](CCC(=O)O)C(=O)N[C@@H](C)C(N)=O [[Nle^18,21, Arg^36]-AHC(6-41)] (H-ISLDLTFHLLRE[Nle]LE[Nle]AKAEQEAEQAALNRRLLEEA-NH2) |  | stimulates | very significant lowering of blood pressure
CCCC[C@H](NC(=O)[C@@H](NC(=O)[C@H](CC(C)C)NC(=O)[C@H](CC(=O)O)NC(=O)[C@H](CC(C)C)NC(=O)[C@H](CO)NC(=O)[C@@H](NC(=O)[C@@H]1CCCN1C(=O)[C@@H]1CCCN1C(=O)[C@H](CCC(=O)O)NC(=O)CNC(=O)c1ccccc1)[C@@H](C)CC)[C@@H](C)O)C(=O)N[C@@H](Cc1c[nH]cn1)C(=O)N[C@@H](CC(C)C)C(=O)N[C@@H](CC(C)C)C(=O)N[C@@H](CCCNC(=N)N)C(=O)N[C@@H](CCC(=O)O)C(=O)N[C@H](C(=O)N[C@@H](CC(C)C)C(=O)N[C@@H](CCC(=O)O)C(=O)N[C@@H](CCSC)C(=O)N[C@@H](C)C(=O)N[C@@H](CCCNC(=N)N)C(=O)N[C@@H](C)C(=O)N[C@@H](CCC(=O)O)C(=O)N[C@@H](CCC(N)=O)C(=O)N[C@@H](CC(C)C)C(=O)N[C@@H](C)C(=O)N[C@@H](CCC(=O)O)C(=O)N[C@@H](CCC(N)=O)C(=O)N[C@@H](C)C(=O)N[C@@H](Cc1c[nH]cn1)C(=O)N[C@@H](CO)C(=O)N[C@@H](CC(N)=O)C(=O)N[C@@H](CCCNC(=N)N)C(=O)N[C@@H](CCCNC(=N)N)C(=O)N[C@@H](CC(C)C)C(=O)N[C@@H](CCSC)C(=O)N[C@@H](CCC(=O)O)C(=O)N[C@H](C(=O)N[C@H](C(N)=O)[C@@H](C)CC)[C@@H](C)CC)C(C)C (Bz-GEPPISLDLT[Nle]HLLREVLEMARAEQLAEQAHSNRRLMEII-NH2) |  | stimulates | very significant lowering of blood pressure
SQEPPISLDLTFHLLREVLEMA[Orn]AEQLAEQAHSNRKLLEII-NH2 [[Gln^2, Orn^23, Glu^29, Leu^38]-rCRF] |  | stimulates | very significant lowering of blood pressure
H-SQE[dP]PISLDLTFHLLRE[Nle]LE[Nle]AKAEQEAEQAALNRLLLEEA-NH2 [[D-Pro^4, Nle^18,21]-AHC] |  | stimulates | very significant lowering of blood pressure
CCCC[C@H](NC(=O)[C@H](CCC(=O)O)NC(=O)[C@H](CC(C)C)NC(=O)[C@H](CCCC)NC(=O)[C@H](CCC(=O)O)NC(=O)[C@H](CCCNC(=N)N)NC(=O)[C@H](CC(C)C)NC(=O)[C@H](CC(C)C)NC(=O)[C@H](Cc1c[nH]cn1)NC(=O)[C@H](Cc1ccccc1)NC(=O)[C@@H](NC(=O)[C@H](CC(C)C)NC(=O)[C@H](CC(=O)O)NC(=O)[C@H](CC(C)C)NC(=O)[C@H](CO)NC(=O)[C@@H](NC(=O)[C@@H]1CCCN1C(=O)[C@@H]1CCCN1C(=O)[C@H](N)Cc1ccc(O)cc1)[C@@H](C)CC)[C@@H](C)O)C(=O)N[C@@H](C)C(=O)N[C@@H](CCCCN)C(=O)N[C@@H](C)C(=O)N[C@@H](CCC(=O)O)C(=O)N[C@@H](CCC(N)=O)C(=O)N[C@@H](CCC(=O)O)C(=O)N[C@@H](C)C(=O)N[C@@H](CCC(=O)O)C(=O)N[C@@H](CCC(N)=O)C(=O)N[C@@H](C)C(=O)N[C@@H](C)C(=O)N[C@@H](CC(C)C)C(=O)N[C@@H](CC(N)=O)C(=O)N[C@@H](CCCNC(=N)N)C(=O)N[C@@H](CC(C)C)C(=O)N[C@@H](CC(C)C)C(=O)N[C@@H](CC(C)C)C(=O)N[C@@H](CCC(=O)O)C(=O)N[C@@H](CCC(=O)O)C(=O)N[C@@H](C)C(N)=O [[D-Tyr^3, Nle^18,21)-AHC(3-41)] (H-[dY]PPISLDLTFHLLRE[Nle]LE[Nle]AKAEQEAEQAALNRLLLEEA-NH2) |  | stimulates | very significant lowering of blood pressure
